In ChEMBL document CHEMBL5325398, “Design of Cytochrome P450 1B1 Inhibitors via a Scaffold-Hopping Approach” (J Med Chem, 2023):

Assays:
Cytochrome P450 1B1 [1] = biological target: Cytochrome P450 1B1 (Homo sapiens, UniProt Q16678, T510V); experiment: Inhibition of CYP1B1 T510V mutant (unknown origin) expressed in HEK293-T-REx cells; type: ADME, cell-based
Cytochrome P450 1B1 [2] = biological target: Cytochrome P450 1B1 (Homo sapiens, UniProt Q16678, T334V); experiment: Inhibition of CYP1B1 T334V mutant (unknown origin) expressed in HEK293-T-REx cells; type: ADME, cell-based
Cytochrome P450 1B1 [3] = biological target: Cytochrome P450 1B1 (Homo sapiens, UniProt Q16678, S127C); experiment: Inhibition of CYP1B1 S127C mutant (unknown origin) expressed in HEK293-T-REx cells; type: ADME, cell-based
[4] = Cytotoxicity against HEK293-T-REx cells assessed as reduction in cell viability measured after 72 hrs by resazurin dye based analysis; type: toxicity, Homo sapiens; conditions: for IC50: hek293-t-rex; for IC50 at 72 h: human, HEK293-T-REx cells
Cytochrome P450 1A1 = biological target: T1, Cytochrome P450 1A1 (Homo sapiens, UniProt P04798); experiment: Inhibition of CYP1A1 (unknown origin) expressed in HEK293-T-REx cells co-expressing POR incubated for 1 hr by resorufin dye based plate reader analysis; type: ADME, cell-based
T1 sequence (P04798 whole entry): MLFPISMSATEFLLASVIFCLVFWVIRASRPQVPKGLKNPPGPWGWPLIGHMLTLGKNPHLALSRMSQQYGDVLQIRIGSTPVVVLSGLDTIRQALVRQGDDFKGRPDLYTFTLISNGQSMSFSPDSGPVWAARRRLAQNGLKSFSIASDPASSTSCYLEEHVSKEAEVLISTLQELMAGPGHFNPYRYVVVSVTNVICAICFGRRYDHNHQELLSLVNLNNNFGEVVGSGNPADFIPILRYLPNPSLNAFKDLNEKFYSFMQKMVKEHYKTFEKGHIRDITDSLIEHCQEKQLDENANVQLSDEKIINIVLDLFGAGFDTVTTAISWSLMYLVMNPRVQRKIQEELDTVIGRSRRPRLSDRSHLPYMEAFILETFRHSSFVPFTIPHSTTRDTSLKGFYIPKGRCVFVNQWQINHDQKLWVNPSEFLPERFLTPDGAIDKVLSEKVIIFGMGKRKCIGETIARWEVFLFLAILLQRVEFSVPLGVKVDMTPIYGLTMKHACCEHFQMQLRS

Cytochrome P450 1B1 [5] = biological target: T2, Cytochrome P450 1B1 (Homo sapiens, UniProt Q16678); experiment: Binding affinity to N-terminal human microsomal CYP1B1 expressed in Escherichia coli assessed as spectral dissociation constant by absorbance based analysis
T2 sequence (Q16678 whole entry): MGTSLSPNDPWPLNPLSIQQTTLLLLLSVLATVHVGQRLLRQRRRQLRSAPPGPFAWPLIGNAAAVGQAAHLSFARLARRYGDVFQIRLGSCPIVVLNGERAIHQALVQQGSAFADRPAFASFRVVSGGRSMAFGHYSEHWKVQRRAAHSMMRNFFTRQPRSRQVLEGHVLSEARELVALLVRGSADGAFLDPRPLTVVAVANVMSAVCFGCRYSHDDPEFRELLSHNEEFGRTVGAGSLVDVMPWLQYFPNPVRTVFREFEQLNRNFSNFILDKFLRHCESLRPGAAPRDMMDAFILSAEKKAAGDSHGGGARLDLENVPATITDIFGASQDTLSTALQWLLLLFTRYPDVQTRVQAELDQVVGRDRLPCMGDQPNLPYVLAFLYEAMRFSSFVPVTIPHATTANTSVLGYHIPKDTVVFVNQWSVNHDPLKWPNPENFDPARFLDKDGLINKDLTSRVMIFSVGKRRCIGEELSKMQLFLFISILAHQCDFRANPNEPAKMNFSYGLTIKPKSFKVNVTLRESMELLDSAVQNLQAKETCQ

Cytochrome P450 1B1 [6] = biological target: T2, Cytochrome P450 1B1; experiment: Inhibition of CYP1B1 (unknown origin) expressed in HEK293-T-REx cells co-expressing POR incubated for 1 hr by resorufin dye based plate reader analysis; type: ADME, cell-based
in vitro [7] = conditions: mouse, liver
in vitro [8] = conditions: human, liver
in vitro [9] = conditions: rat, liver
CYP1A1 versus CYP1B1 = experiment: Selectivity index, ratio of IC50 for CYP1A1 (unknown origin) to IC50 for CYP1B1 (unknown origin); conditions: read-out: Ratio IC50

Sequence of Cytochrome P450 1B1 (Homo sapiens, UniProt Q16678, T334V) (Q16678 whole entry T334V): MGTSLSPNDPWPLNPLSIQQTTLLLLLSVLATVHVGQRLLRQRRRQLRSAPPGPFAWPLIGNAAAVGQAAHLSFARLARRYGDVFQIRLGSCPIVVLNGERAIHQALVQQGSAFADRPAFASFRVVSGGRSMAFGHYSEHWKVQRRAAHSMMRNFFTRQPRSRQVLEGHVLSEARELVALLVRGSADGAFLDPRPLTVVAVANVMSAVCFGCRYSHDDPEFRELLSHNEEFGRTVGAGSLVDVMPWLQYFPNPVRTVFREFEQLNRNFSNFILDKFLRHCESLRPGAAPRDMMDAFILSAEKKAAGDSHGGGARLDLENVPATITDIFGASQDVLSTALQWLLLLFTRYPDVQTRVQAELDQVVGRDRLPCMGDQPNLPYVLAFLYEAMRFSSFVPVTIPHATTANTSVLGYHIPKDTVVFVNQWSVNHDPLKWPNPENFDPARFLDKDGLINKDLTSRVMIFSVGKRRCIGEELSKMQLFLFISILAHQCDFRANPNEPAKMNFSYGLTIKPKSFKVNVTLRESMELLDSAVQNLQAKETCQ
Sequence of Cytochrome P450 1B1 (Homo sapiens, UniProt Q16678, T510V) (Q16678 whole entry T510V): as the sequence (Q16678 whole entry T334V) above, with V334T, T510V counted along it
Sequence of Cytochrome P450 1B1 (Homo sapiens, UniProt Q16678, S127C) (Q16678 whole entry S127C): as the sequence (Q16678 whole entry T334V) above, with S127C, V334T counted along it

O=c1cc(-c2ccccc2)oc2c1ccc1ccccc12 [ALPHA-NAPHTHOFLAVONE]
inhibition (INH) (Cytochrome P450 1B1 [1]): Active
inhibition (INH) (Cytochrome P450 1B1 [2]): Not Active
inhibition (INH) (Cytochrome P450 1B1 [3]): Active
IC50 [4]: 14.8 µM

COc1ccc(-c2nc(-c3cccnc3)cs2)c(OC)c1
IC50 [4]: 26.7 µM

COc1ccc(OC)c2c1c(OC)cc1c(=O)cc(-c3cccc(F)c3)oc12
IC50 (Cytochrome P450 1A1): 0.012 µM

COc1cc(/C=C/c2ccc(OC)cc2OC)cc(OC)c1
inhibition (INH) (Cytochrome P450 1B1 [1]): Not Active
inhibition (INH) (Cytochrome P450 1B1 [2]): Not Active
inhibition (INH) (Cytochrome P450 1B1 [3]): Active
IC50 [4]: 1.3 µM

COc1cc(OC)cc(-c2csc(-c3cc(OC)cc(OC)c3)n2)c1
IC50 at 72 h [4]: 10 µM

COc1ccc(-c2csc(-c3ccc(OC)cc3OC)n2)cc1
IC50 [4]: > 100 µM

COc1cc(OC)cc(-c2cncc(-c3cc(OC)cc(OC)c3)c2)c1
IC50 [4]: 0.18 µM

COc1cc(OC)cc(-c2cc(-c3cc(OC)cc(OC)c3)ncn2)c1
IC50 [4]: 10 µM

COc1ccc(-c2nc(-c3ccc(F)cc3)cs2)c(OC)c1
IC50 [4]: 51.4 µM

COc1ccc(-c2cccc(-c3ccc(OC)cc3OC)c2)c(OC)c1
IC50 [4]: 1.62 µM

COc1ccc(-c2nc(-c3ccc(O)cc3)cs2)c(OC)c1
IC50 [4]: 3.4 µM
Kd (Cytochrome P450 1B1 [5]): 0.35 µM
IC50 (Cytochrome P450 1B1 [6]): 0.6 µM

COc1ccc(-c2nc(-c3ccc(C#N)cc3)cs2)c(OC)c1
inhibition (INH) (Cytochrome P450 1B1 [1]): Not Active
inhibition (INH) (Cytochrome P450 1B1 [2]): Not Active
IC50 [4]: > 100 µM

COc1ccc(-c2csc(-c3ccc(OC)cc3OC)n2)c(OC)c1
IC50 [4]: ~100 µM

COc1cc(OC)cc(-c2ccc(-c3cc(OC)cc(OC)c3)s2)c1
IC50 [4]: > 10 µM

O=C(O)Cc1ccccc1Nc1c(Cl)cccc1Cl [DICLOFENAC]
CLint scaled at 100 µM (in vitro [7]): 178 mL/min/kg
CLint scaled at 100 µM (in vitro [8]): 324 mL/min/kg
CLint scaled at 100 µM (in vitro [9]): 142 mL/min/kg

COc1cc(OC)cc(-c2ccnc(-c3cc(OC)cc(OC)c3)n2)c1
IC50 at 72 h [4]: 10 µM

COc1ccc(/C=C/c2ccncc2)c(OC)c1
IC50 (Cytochrome P450 1A1): 4.57 µM

C#C[C@]1(O)CC[C@H]2[C@@H]3CCc4cc(O)c(-c5ccc(OC)cc5)cc4[C@H]3CC[C@@]21C
IC50 (Cytochrome P450 1A1): 9.2 µM
selectivity ratio (CYP1A1 versus CYP1B1): 25
IC50 (Cytochrome P450 1B1 [6]): 0.37 µM

COc1cc(OC)cc(-c2cccc(-c3cc(OC)cc(OC)c3)c2)c1
IC50 [4]: 4.18 µM
